The target of assay [1] is T1, NAD-dependent protein deacetylase sirtuin-1 (Homo sapiens) (UniProt Q96EB6).
T1 sequence (whole entry): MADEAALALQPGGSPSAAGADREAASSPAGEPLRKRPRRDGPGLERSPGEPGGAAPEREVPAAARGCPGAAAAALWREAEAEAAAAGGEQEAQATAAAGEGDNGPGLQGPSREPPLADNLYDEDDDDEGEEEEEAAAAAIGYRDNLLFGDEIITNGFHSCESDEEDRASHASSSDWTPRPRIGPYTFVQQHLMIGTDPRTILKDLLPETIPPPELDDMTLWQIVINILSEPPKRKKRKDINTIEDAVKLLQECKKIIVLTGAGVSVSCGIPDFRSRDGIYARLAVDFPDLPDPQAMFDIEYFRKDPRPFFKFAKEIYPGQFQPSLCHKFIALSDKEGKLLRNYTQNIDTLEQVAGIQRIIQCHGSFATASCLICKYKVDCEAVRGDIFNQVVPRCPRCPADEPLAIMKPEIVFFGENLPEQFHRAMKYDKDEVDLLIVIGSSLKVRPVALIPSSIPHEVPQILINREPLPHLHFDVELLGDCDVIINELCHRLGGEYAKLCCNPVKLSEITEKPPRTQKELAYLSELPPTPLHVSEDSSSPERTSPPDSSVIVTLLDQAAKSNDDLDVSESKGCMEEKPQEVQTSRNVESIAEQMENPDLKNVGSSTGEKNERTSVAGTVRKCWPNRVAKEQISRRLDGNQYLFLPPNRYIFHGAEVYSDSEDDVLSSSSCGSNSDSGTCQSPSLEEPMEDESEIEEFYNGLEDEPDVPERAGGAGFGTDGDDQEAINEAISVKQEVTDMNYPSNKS
In words: Inhibition of SIRT1 (unknown origin) assessed as reduction in Fluor de Lys deacetylation at 10 to 20 uM incubated for 5 mins followed by substrate addition measured after 45 mins in presence of NAD/NADH by fluorescence assay.

Assay [2] has as its target T1, NAD-dependent protein deacetylase sirtuin-1 (Homo sapiens). In words: Activation of SIRT1 (unknown origin) assessed as Fluor de Lys deacetylation at 10 to 20 uM incubated for 5 mins followed by substrate addition measured after 45 mins in presence of NAD/NADH by fluorescence assay.

Here are results for 23 compounds from ChEMBL document CHEMBL4184125, “SIRT1 activator isolated from artificial gastric juice incubate of total saponins in stems and leaves of Panax ginseng” (Bioorg Med Chem Lett, 2018).

Active and inactive are the calls of the source. The calls are words filed in the database; no cut-off is given here.

On to `C=C(CCC=C(C)C)[C@H]1CC[C@]2(C)[C@@H]1[C@H](O)C[C@@H]1[C@@]3(C)CC[C@H](O)C(C)(C)[C@@H]3[C@@H](O[C@@H]3O[C@H](CO)[C@@H](O)[C@H](O)[C@H]3O[C@@H]3O[C@@H](C)[C@H](O)[C@@H](O)[C@H]3O)C[C@]12C`, for which the inhibition entry in assay [1] was “inactive”. Same read-out and setting: next, `CC(C)=CCC[C@@](C)(O)[C@H]1CC[C@]2(C)[C@@H]1[C@H](O)C[C@@H]1[C@@]3(C)CC[C@H](O[C@@H]4O[C@H](CO)[C@@H](O)[C@H](O)[C@H]4O)C(C)(C)[C@@H]3[C@@H](O)C[C@]12C`: “inactive”; `CC(C)=CCC[C@@](C)(O)[C@H]1CC[C@]2(C)[C@@H]1[C@H](O)C[C@@H]1[C@@]3(C)CC[C@H](O[C@@H]4O[C@H](CO)[C@@H](O)[C@H](O)[C@H]4O)C(C)(C)[C@@H]3CC[C@]12C`: “inactive”; `CCOC(C)(C)CC/C=C(\C)[C@H]1CC[C@]2(C)[C@@H]1[C@H](O)C[C@@H]1[C@@]3(C)CC[C@H](O)C(C)(C)[C@@H]3[C@@H](O)C[C@]12C`: “inactive”. For the compound `CC(C)=CC/C=C(\C)[C@H]1CC[C@]2(C)[C@@H]1[C@H](O)C[C@@H]1[C@@]3(C)CC[C@H](O)C(C)(C)[C@@H]3[C@@H](O[C@@H]3O[C@H](CO)[C@@H](O)[C@H](O)[C@H]3O)C[C@]12C`, the outcome in assay [2] was Active. In addition, the inhibition entry in assay [1] is “inactive”.

As for `CC(C)=CCC[C@@](C)(O)[C@H]1CC[C@]2(C)[C@@H]1[C@H](O)C[C@@H]1[C@@]3(C)CC[C@H](O[C@@H]4O[C@H](CO)[C@@H](O)[C@H](O)[C@H]4O[C@@H]4O[C@H](CO)[C@@H](O)[C@H](O)[C@H]4O)C(C)(C)[C@@H]3CC[C@]12C`, the result in assay [2] was Active. In addition, the inhibition entry in assay [1] is “inactive”. As to `NC(=O)c1cccnc1`, in assay [1], the inhibition result was “inactive”. Still for that read-out and setting: next, `C/C(=C\CCC(C)(C)O)[C@H]1CC[C@]2(C)[C@@H]1[C@H](O)C[C@@H]1[C@@]3(C)CC[C@H](O[C@@H]4O[C@H](CO)[C@@H](O)[C@H](O)[C@H]4O)C(C)(C)[C@@H]3[C@@H](O)C[C@]12C`: “inactive”. `CC(C)=CCC[C@](C)(O)[C@H]1CC[C@]2(C)[C@@H]1[C@H](O)C[C@@H]1[C@@]3(C)CC[C@H](O[C@@H]4O[C@H](CO)[C@@H](O)[C@H](O)[C@H]4O[C@@H]4O[C@H](CO)[C@@H](O)[C@H](O)[C@H]4O)C(C)(C)[C@@H]3CC[C@]12C`: the outcome in assay [2] was Active. Further, the inhibition result in assay [1] is “inactive”. `CC(C)=CCC[C@](C)(O)[C@H]1CC[C@]2(C)[C@@H]1[C@H](O)C[C@@H]1[C@@]3(C)CC[C@H](O)C(C)(C)[C@@H]3[C@@H](O[C@@H]3O[C@H](CO)[C@@H](O)[C@H](O)[C@H]3O[C@@H]3O[C@@H](C)[C@H](O)[C@@H](O)[C@H]3O)C[C@]12C`: in assay [1], the inhibition entry was “inactive”. Still for that read-out and setting: as for `CC(C)=CCC[C@@](C)(O)[C@H]1CC[C@]2(C)[C@@H]1[C@H](O)C[C@@H]1[C@@]3(C)CC[C@H](O)C(C)(C)[C@@H]3[C@@H](O[C@@H]3O[C@H](CO)[C@@H](O)[C@H](O)[C@H]3O[C@@H]3O[C@@H](C)[C@H](O)[C@@H](O)[C@H]3O)C[C@]12C`, the entry is “inactive”.

For `CC(C)(O)CCC[C@@](C)(O)[C@H]1CC[C@]2(C)[C@@H]1[C@H](O)C[C@@H]1[C@@]3(C)CC[C@H](O)C(C)(C)[C@@H]3[C@@H](O)C[C@]12C`, the result in assay [2] was inactive. For the same compound, the inhibition entry in assay [1] is “inactive”. Take `C/C(=C/CCC(C)(C)O)[C@H]1CC[C@]2(C)[C@@H]1[C@H](O)C[C@@H]1[C@@]3(C)CC[C@H](O)C(C)(C)[C@@H]3[C@@H](O)C[C@]12C`: the inhibition result in assay [1] is “inactive”. Take `CC(C)=CCC[C@](C)(O[C@@H]1O[C@H](CO)[C@@H](O)[C@H](O)[C@H]1O)[C@H]1CC[C@]2(C)[C@@H]1[C@H](O)C[C@@H]1[C@@]3(C)CC[C@H](O)C(C)(C)[C@@H]3[C@@H](O)C[C@]12C`: the result in assay [2] was Active. Moreover, the inhibition result in assay [1] is “inactive”. The matching figures for `C=C(CCC=C(C)C)[C@H]1CC[C@]2(C)[C@@H]1[C@H](O)C[C@@H]1[C@@]3(C)CC[C@H](O)C(C)(C)[C@@H]3[C@@H](O[C@@H]3O[C@H](CO)[C@@H](O)[C@H](O)[C@H]3O)C[C@]12C`: “Active” and “inactive”. With `C/C(=C\CCC(C)(C)O)[C@H]1CC[C@]2(C)[C@@H]1[C@H](O)C[C@@H]1[C@@]3(C)CC[C@H](O)C(C)(C)[C@@H]3[C@@H](O)C[C@]12C`, the inhibition entry in assay [1] was “inactive”. `CC(C)=CCC[C@](C)(O)[C@H]1CC[C@]2(C)[C@@H]1[C@H](O)C[C@@H]1[C@@]3(C)CC[C@H](O[C@@H]4O[C@H](CO)[C@@H](O)[C@H](O)[C@H]4O)C(C)(C)[C@@H]3CC[C@]12C`: the outcome in assay [2] was Active. Moreover, in assay [1], the inhibition result is “inactive”. For `CC(C)=CC/C=C(\C)[C@H]1CC[C@]2(C)[C@@H]1[C@H](O)C[C@@H]1[C@@]3(C)CC[C@H](O[C@@H]4O[C@H](CO)[C@@H](O)[C@H](O)[C@H]4O[C@@H]4O[C@H](CO)[C@@H](O)[C@H](O)[C@H]4O)C(C)(C)[C@@H]3CC[C@]12C`, in that order: “Active” and “inactive”. For `CC(C)(O)CCC[C@](C)(O)[C@H]1CC[C@]2(C)[C@@H]1[C@H](O)C[C@@H]1[C@@]3(C)CC[C@H](O)C(C)(C)[C@@H]3[C@@H](O)C[C@]12C`, in that order: “inactive” and “inactive”. On to `CC(C)=CCC[C@](C)(O)[C@H]1CC[C@]2(C)[C@@H]1[C@H](O)C[C@@H]1[C@@]3(C)CC[C@H](O[C@@H]4O[C@H](CO)[C@@H](O)[C@H](O)[C@H]4O)C(C)(C)[C@@H]3[C@@H](O)C[C@]12C`, for which, in assay [2], the result was Active. In assay [1], the inhibition entry is “inactive”. In the case of `CC(C)=CCC[C@](C)(O)[C@H]1CC[C@]2(C)[C@@H]1[C@H](O)C[C@@H]1[C@@]3(C)CC[C@H](O)C(C)(C)[C@@H]3CC[C@]12C`, in assay [2], the outcome was Active. As to `Oc1ccc(/C=C/c2cc(O)cc(O)c2)cc1`, in assay [1], the inhibition result is “inactive”. Still for that read-out and setting: as for `C/C(=C/CC[C@@](C)(O)[C@H]1CC[C@]2(C)[C@@H]1[C@H](O)C[C@@H]1[C@@]3(C)CC[C@H](O)C(C)(C)[C@@H]3[C@@H](O)C[C@]12C)CO`, the entry is “inactive”.
